Assay results published in patent US20120301468A1, “ANTI-MN ANTIBODIES AND METHODS OF USING SAME” (BAYER HEALTHCARE LLC, priority 2005, published 2012).

What was measured:
MN-expressing MaTu cells = assay: FACS cell binding, MaTu cells; type: cell-based, human
[1] = test system: MN-expressing cells (PC3 mm2); assay: Antibody internalization (Cellomics), PC3 mm2; type: cell-based, human
[2] = test system: MN-expressing cells (PC3 mm2); assay: Spindle formation / tubulin staining, Pc3 mm2; type: cell-based, human; settings: tubulin stained with fluorescence labeled antibody
Description: The cytotoxic drug MMAE delivered by 3ee9/MMAE is a tubulin inhibitor that prevents spindle formation during cell mitosis resulting in G2/M arrest. The tubulin is stained with florescence labeled antibody. […] These studies confirmed that the antibody drug conjugate 3ee9/MMAE kills cell through targeted tubulin disruption.

[3] = test system: HT-29 human CRC xenograft; assay: HT-29 subcutaneous xenograft model; type: in vivo, athymic NCr (nu/nu) mice; settings: for TGI: end of dosing
Experimental: When tumors reached an average size of ˜120 mg (5 days), treatment was initiated. […] In addition, MMAE was assessed as a free drug at a dose of 0.1, 0.2 and 1 mg/kg. The 0.1 and 0.2 mg/Kg doses of MMAE represent equivalent amounts of this drug to those present on 5 and 10 mg/Kg 3ee9/MMAE respectively.
Anti-tumor effect of 3ee9/MMAE was also assessed in varying schedules, i.e., once a week dosing for total of two doses (Q7Dx2, FIG. 20) and a single dose at the time of staging (Q1Dx1, FIG. 21). In both schedules, 3ee9/MMAE was dosed at 0.625, 1.25, 2.5, 5 and 10 mg/kg.

MN = MN (Homo sapiens, UniProt Q16790); assay: Immunoprecipitation of biotinylated cell surface proteins; type: binding; design: incubated with cell lysates of MN+ (Pc3 mm2) and MN− (DLD-1) cell lines that had been selectively labeled with biotin; endogenous in cells; host or cells: PC-3 mm2 (MN+); DLD-1 as the MN- control; settings: Table 4 profile
Experimental: To further explore specificity, various candidate antibodies including the antibody portion of 3ee9/MMAE (3ee9) and the reference antibody G250 were incubated with cell lysates of MN+ (Pc3 mm2) and MN− (DLD-1) cell lines that had been selectively labeled with biotin. Complexes between the antibodies and cellular proteins were immuno-precipitated and the co-precipitated antigens visualized using immunoblots developed with enzyme-linked streptavidin.

3ee9/MMAE: human anti-MN IgG1 antibody 3ee9 conjugated to Monomethylauristatin E (MMAE)
cell binding by FACS (MN-expressing MaTu cells): bind to MN-expressing MaTu cells | internalization [1]: selectively internalized | effect on spindle formation [2]: fragmented fibers resulting from tubulin binding with MMAE and prevention of normal spindle formation | TGI ([3]; HT-29, 0.625 mg/kg Q4Dx3): 54% | % Inhibition (1-T/D)*100 (Day 18) ([3]; HT-29, 0.625 mg/kg, Q1D × 1): 42% | Percent Regressions ([3]; HT-29, 0.625 mg/kg, Q1D × 1): 0% | % Inhibition (1-T/D)*100 (Day 18) ([3]; HT-29, 0.625 mg/kg, Q4D × 3): 54% | Percent Regressions ([3]; HT-29, 0.625 mg/kg, Q4D × 3): 0% | % Inhibition (1-T/D)*100 (Day 18) ([3]; HT-29, 0.625 mg/kg, Q7D × 2): 48% | Percent Regressions ([3]; HT-29, 0.625 mg/kg, Q7D × 2): 0% | animals showing regressions ([3]; HT-29, 1.25 mg/kg Q4Dx3): 20% | TGI ([3]; HT-29, 1.25 mg/kg Q4Dx3): 72% | % Inhibition (1-T/D)*100 (Day 18) ([3]; HT-29, 1.25 mg/kg, Q1D × 1): 48% | Percent Regressions ([3]; HT-29, 1.25 mg/kg, Q1D × 1): 0% | % Inhibition (1-T/D)*100 (Day 18) ([3]; HT-29, 1.25 mg/kg, Q4D × 3): 72% | Percent Regressions ([3]; HT-29, 1.25 mg/kg, Q4D × 3): 2% | % Inhibition (1-T/D)*100 (Day 18) ([3]; HT-29, 1.25 mg/kg, Q7D × 2): 71% | Percent Regressions ([3]; HT-29, 1.25 mg/kg, Q7D × 2): 0% | regressions ([3]; HT-29, 2.5 mg/kg Q4Dx3): 90% | TGI ([3]; HT-29, 2.5 mg/kg Q4Dx3): 97% | % Inhibition (1-T/D)*100 (Day 18) ([3]; HT-29, 2.5 mg/kg, Q1D × 1): 93% | Percent Regressions ([3]; HT-29, 2.5 mg/kg, Q1D × 1): 5% | % Inhibition (1-T/D)*100 (Day 18) ([3]; HT-29, 2.5 mg/kg, Q4D × 3): 97% | Percent Regressions ([3]; HT-29, 2.5 mg/kg, Q4D × 3): 9% | % Inhibition (1-T/D)*100 (Day 18) ([3]; HT-29, 2.5 mg/kg, Q7D × 2): 92% | TGI ([3]; HT-29, 5 mg/kg Q4Dx3): 100% | % Inhibition (1-T/D)*100 (Day 18) ([3]; HT-29, 5 mg/kg, Q1D × 1): 98% | Percent Regressions ([3]; HT-29, 5 mg/kg, Q1D × 1): 8% | % Inhibition (1-T/D)*100 (Day 18) ([3]; HT-29, 5 mg/kg, Q4D × 3): 100% | Percent Regressions ([3]; HT-29, 5 mg/kg, Q4D × 3): 10% | % Inhibition (1-T/D)*100 (Day 18) ([3]; HT-29, 5 mg/kg, Q7D × 2): 96% | Percent Regressions ([3]; HT-29, 5 mg/kg, Q7D × 2): 7% | TGI ([3]; HT-29, 10 mg/kg Q4Dx3): 100% | % Inhibition (1-T/D)*100 (Day 18) ([3]; HT-29, 10 mg/kg, Q1D × 1): 100% | Percent Regressions ([3]; HT-29, 10 mg/kg, Q1D × 1): 10% | % Inhibition (1-T/D)*100 (Day 18) ([3]; HT-29, 10 mg/kg, Q4D × 3): 100% | Percent Regressions ([3]; HT-29, 10 mg/kg, Q4D × 3): 10% | % Inhibition (1-T/D)*100 (Day 18) ([3]; HT-29, 10 mg/kg, Q7D × 2): 100% | Percent Regressions ([3]; HT-29, 10 mg/kg, Q7D × 2): 10% | tolerability ([3]; HT-29, 0.625 to 10 mg/kg i.v. Q4Dx3): well tolerated at all doses examined | responses ([3]; HT-29, 5 and 10 mg/kg Q4Dx3): 100% | anti-tumor effect in varying schedules ([3]; HT-29, Q7Dx2 and Q1Dx1, 0.625 to 10 mg/kg): highly effective in inhibiting the growth | anti-tumor effects ([3]; HT-29 human colo-rectal cancer xenograft model): anti-tumor effects were seen | Immunoprecipitation (MN): specific
